This is an account of results in ChEMBL document CHEMBL1135845, “N-(arylacetyl)-biphenylalanines as potent VLA-4 antagonists” (Bioorg Med Chem Lett, 2002).

The bioavailability is the share of a dose that reaches the circulation, judged against a reference dose that is usually intravenous. The half-life is the time in which the quantity being followed falls by half. High values mean slow loss, low ones fast loss. A word on the pIC50: it is −log10 of the IC50, conventionally taken in molar units. Read a high pIC50 as a small IC50.

Structures are written as SMILES. pIC50: −log10 of the molar value.

Test system in the first series: not listed separately
The series is described as follows: Bioavailability in rat (Sprague-Dawley) (dose 1 mg/kg i.v. and 2 mg/kg p.o.). Type of series: ADME, organism-based. To be noted: in vivo, po.
`COc1ccccc1-c1ccc(C[C@H](NC(=O)C2(c3cccnc3)CCCCC2)C(=O)O)cc1` registered a bioavailability of 6%.
As for `COc1ccccc1-c1ccc(C[C@H](NC(=O)C2(c3ccc(C)nc3)CCCC2)C(=O)O)cc1`, the bioavailability was determined as 12%.
`COc1ccccc1-c1ccc(C[C@H](NC(=O)C2(c3cccnc3C)CCCC2)C(=O)O)cc1` had a bioavailability of 11%.
`COc1ccccc1-c1ccc(C[C@H](NC(=O)C2(c3ccccc3)CCCC2)C(=O)O)cc1` returned a bioavailability of 55%.
Compound `COc1ccccc1-c1ccc(C[C@H](NC(=O)C2(c3cccnc3)CCOCC2)C(=O)O)cc1` returned a bioavailability of under 1%.
Consider `COc1ccccc1-c1ccc(C[C@H](NC(=O)C(C)(C)c2ccccc2)C(=O)O)cc1`, for which the bioavailability worked out at 94%.
In the case of `COc1ccccc1-c1ccc(C[C@H](NC(=O)C2(c3ccccn3)CCCC2)C(=O)O)cc1`, the bioavailability was under 1%.
Take `COc1ccccc1-c1ccc(C[C@H](NC(=O)C2(c3ccc(O)nc3)CCCC2)C(=O)O)cc1`: the bioavailability worked out at 1%.

Test system in another series: not listed separately
The series is described as follows: Plasma clearance rate in Sprague-Dawley rats. To be noted: rat, read-out: Clp. Type of series: ADME, organism-based.
For `COc1ccccc1-c1ccc(C[C@H](NC(=O)C2(c3cccnc3)CCCCC2)C(=O)O)cc1`, the clearance came out at 82 mL/min/kg.
On the same count and under the same terms, the figure for `COc1ccccc1-c1ccc(C[C@H](NC(=O)C2(c3ccc(C)nc3)CCCC2)C(=O)O)cc1` is over 100 mL/min/kg; for `COc1ccccc1-c1ccc(C[C@H](NC(=O)C2(c3cccnc3C)CCCC2)C(=O)O)cc1` it is over 100 mL/min/kg; for `COc1ccccc1-c1ccc(C[C@H](NC(=O)C2(c3ccccc3)CCCC2)C(=O)O)cc1` it is 21.5 mL/min/kg.
Consider `COc1ccccc1-c1ccc(C[C@H](NC(=O)C2(c3cccnc3)CCOCC2)C(=O)O)cc1`, for which the clearance is over 100 mL/min/kg.
Turning to `COc1ccccc1-c1ccc(C[C@H](NC(=O)C(C)(C)c2ccccc2)C(=O)O)cc1`, the clearance worked out at 7.5 mL/min/kg.
On the same count and under the same terms, as for `COc1ccccc1-c1ccc(C[C@H](NC(=O)C2(c3ccccn3)CCCC2)C(=O)O)cc1`, the figure is over 100 mL/min/kg; as for `COc1ccccc1-c1ccc(C[C@H](NC(=O)C2(c3ccc(O)nc3)CCCC2)C(=O)O)cc1`, over 100 mL/min/kg.

Test system in a further series: not listed separately
The series can be described thus: Plasma half-life was determined in Sprague-Dawley rats after 0-8 h administration of the compound. Type of series: ADME, organism-based. The following applies: rat.
`COc1ccccc1-c1ccc(C[C@H](NC(=O)C2(c3cccnc3)CCCCC2)C(=O)O)cc1` gave a half-life of 24 min.
Regarding `COc1ccccc1-c1ccc(C[C@H](NC(=O)C2(c3ccc(C)nc3)CCCC2)C(=O)O)cc1`, the half-life is 18 min.
As to `COc1ccccc1-c1ccc(C[C@H](NC(=O)C2(c3cccnc3C)CCCC2)C(=O)O)cc1`, the half-life is 36 min.
`COc1ccccc1-c1ccc(C[C@H](NC(=O)C2(c3ccccc3)CCCC2)C(=O)O)cc1` gave a half-life of 60 min.
Same read-out and setting: the figure for `COc1ccccc1-c1ccc(C[C@H](NC(=O)C(C)(C)c2ccccc2)C(=O)O)cc1` is 120 min.

Test system in a further series: not listed separately
The series can be described thus: Inhibition of VLA-4 binding to radiolabeled vascular cell adhesion molecule-1 (VCAM-1) Ig fusion protein in human Jurkat cells. Type of series: cell-based.
Details: not given
`COc1ccccc1-c1ccc(C[C@H](NC(=O)C2(c3cccnc3)CCC(C)C2)C(=O)O)cc1` (mixture of isomers) showed a pIC50 of 9.15.
Regarding `COc1ccccc1-c1ccc(C[C@H](NC(=O)C2(c3cccnc3)CCCCC2)C(=O)O)cc1`, the pIC50 is 8.85.
Turning to `COc1ccccc1-c1ccc(C[C@H](NC(=O)C2(c3ccc(C)nc3)CCCC2)C(=O)O)cc1`, the pIC50 was 8.89. This pIC50 and that of the compound before are within 0.2 log units of each other.
On the same count and under the same terms, the figure for `COc1ccccc1-c1ccc(C[C@H](NC(=O)C2(c3ccc[n+]([O-])c3)CCCC2)C(=O)O)cc1` is 8.49; for `COc1ccccc1-c1ccc(C[C@H](NC(=O)Cc2ccccn2)C(=O)O)cc1` it is 7.80; for `COc1ccccc1-c1ccc(C[C@H](NC(=O)C2(c3cccnc3C)CCCC2)C(=O)O)cc1` it is 8.82.
Compound `COc1ccccc1-c1ccc(C[C@H](NC(=O)C(OC)c2ccccc2)C(=O)O)cc1` (stereo not given in full) gave a pIC50 of 8.15.
On to `COc1ccccc1-c1ccc(C[C@H](NC(=O)Cc2cccnc2)C(=O)O)cc1`, for which the pIC50 is 7.89.
Take `COc1ccccc1-c1ccc(C[C@H](NC(=O)C2(c3cccnc3)CC=CC2)C(=O)O)cc1`: the pIC50 was 9.05. This pIC50 lies 1.16 log units higher than the previous one.
For the compound `COc1ccccc1-c1ccc(C[C@H](NC(=O)Cc2cccc3ccccc23)C(=O)O)cc1`, the negative logarithm of the IC50 (pIC50) was 6.84. This pIC50 is 2.21 log units lower than that of the compound before.
Regarding `COc1ccccc1-c1ccc(C[C@H](NC(=O)Cc2cccc([N+](=O)[O-])c2)C(=O)O)cc1`, the negative logarithm of the IC50 (pIC50) was 7.19.
Consider `COc1ccccc1-c1ccc(C[C@H](NC(=O)Cc2cccc(F)c2)C(=O)O)cc1`, for which the pIC50 was 6.61.
In turn, `COc1ccccc1-c1ccc(C[C@H](NC(=O)Cc2ccc(F)cc2)C(=O)O)cc1` gave a pIC50 of 6.89.
Regarding `COc1ccccc1-c1ccc(C[C@H](NC(=O)Cc2cccc(C)c2)C(=O)O)cc1`, the pIC50 is 7.51. This pIC50 is 0.62 log units higher than that of the compound before.
As for `COc1ccccc1-c1ccc(C[C@H](NC(=O)Cc2ccncc2)C(=O)O)cc1`, the pIC50 was 7.91. Against the preceding compound, the pIC50 is 0.40 log units higher.
In turn, `COc1ccccc1-c1ccc(C[C@H](NC(=O)C2(c3ccccc3)CCCC2)C(=O)O)cc1` gave a pIC50 of 8.49.
Compound `COc1ccccc1-c1ccc(C[C@H](NC(=O)C2(c3ccnnc3)CCCC2)C(=O)O)cc1` had a pIC50 of 9.30.
`COc1ccccc1-c1ccc(C[C@H](NC(=O)C2(c3cccnc3)CCN(C(C)=O)CC2)C(=O)O)cc1` showed a pIC50 of 9.15.
Consider `COc1ccccc1-c1ccc(C[C@H](NC(=O)C2(c3cccnc3)CCOCC2)C(=O)O)cc1`, for which the pIC50 was 9.30.
Still for that read-out and setting: as for `COc1ccccc1-c1ccc(C[C@H](NC(=O)C(C)(C)c2ccccc2)C(=O)O)cc1`, the figure is 7.85; as for `COc1ccccc1-c1ccc(C[C@H](NC(=O)C2(c3ccccn3)CCCC2)C(=O)O)cc1`, 8.52; as for `COc1ccccc1-c1ccc(C[C@H](NC(=O)C2(c3ccc(O)nc3)CCCC2)C(=O)O)cc1`, 8.85.

A further series has as its target T1, Integrin alpha-4/beta-7 (Homo sapiens, UniProt P13612+P26010).
T1 sequence (P13612 whole entry): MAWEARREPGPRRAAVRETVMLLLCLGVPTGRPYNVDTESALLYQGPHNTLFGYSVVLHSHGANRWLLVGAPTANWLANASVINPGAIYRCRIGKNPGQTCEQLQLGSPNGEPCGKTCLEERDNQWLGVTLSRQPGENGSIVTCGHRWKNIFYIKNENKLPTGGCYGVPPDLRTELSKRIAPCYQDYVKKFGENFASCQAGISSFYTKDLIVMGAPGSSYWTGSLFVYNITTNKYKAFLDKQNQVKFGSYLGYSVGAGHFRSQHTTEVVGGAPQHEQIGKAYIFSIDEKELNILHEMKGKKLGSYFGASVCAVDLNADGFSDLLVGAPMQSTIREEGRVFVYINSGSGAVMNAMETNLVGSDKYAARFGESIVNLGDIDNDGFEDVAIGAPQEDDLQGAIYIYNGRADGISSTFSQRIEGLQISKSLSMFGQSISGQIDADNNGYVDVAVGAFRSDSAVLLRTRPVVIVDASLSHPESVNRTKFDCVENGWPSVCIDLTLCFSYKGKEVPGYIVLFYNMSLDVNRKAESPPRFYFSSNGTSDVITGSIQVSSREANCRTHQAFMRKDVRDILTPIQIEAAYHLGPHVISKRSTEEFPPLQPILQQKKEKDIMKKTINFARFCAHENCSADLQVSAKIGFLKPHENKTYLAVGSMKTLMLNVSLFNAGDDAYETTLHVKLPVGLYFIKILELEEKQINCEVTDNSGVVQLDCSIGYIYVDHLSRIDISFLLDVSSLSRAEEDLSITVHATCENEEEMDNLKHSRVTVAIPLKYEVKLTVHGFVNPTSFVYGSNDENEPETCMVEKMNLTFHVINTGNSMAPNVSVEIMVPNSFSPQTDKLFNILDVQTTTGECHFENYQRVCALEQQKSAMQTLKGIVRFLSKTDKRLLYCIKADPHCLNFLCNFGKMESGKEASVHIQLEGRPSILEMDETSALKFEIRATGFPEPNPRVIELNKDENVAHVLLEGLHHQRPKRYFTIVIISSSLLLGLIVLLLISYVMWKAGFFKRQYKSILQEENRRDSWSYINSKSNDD
T1 sequence (P26010 whole entry): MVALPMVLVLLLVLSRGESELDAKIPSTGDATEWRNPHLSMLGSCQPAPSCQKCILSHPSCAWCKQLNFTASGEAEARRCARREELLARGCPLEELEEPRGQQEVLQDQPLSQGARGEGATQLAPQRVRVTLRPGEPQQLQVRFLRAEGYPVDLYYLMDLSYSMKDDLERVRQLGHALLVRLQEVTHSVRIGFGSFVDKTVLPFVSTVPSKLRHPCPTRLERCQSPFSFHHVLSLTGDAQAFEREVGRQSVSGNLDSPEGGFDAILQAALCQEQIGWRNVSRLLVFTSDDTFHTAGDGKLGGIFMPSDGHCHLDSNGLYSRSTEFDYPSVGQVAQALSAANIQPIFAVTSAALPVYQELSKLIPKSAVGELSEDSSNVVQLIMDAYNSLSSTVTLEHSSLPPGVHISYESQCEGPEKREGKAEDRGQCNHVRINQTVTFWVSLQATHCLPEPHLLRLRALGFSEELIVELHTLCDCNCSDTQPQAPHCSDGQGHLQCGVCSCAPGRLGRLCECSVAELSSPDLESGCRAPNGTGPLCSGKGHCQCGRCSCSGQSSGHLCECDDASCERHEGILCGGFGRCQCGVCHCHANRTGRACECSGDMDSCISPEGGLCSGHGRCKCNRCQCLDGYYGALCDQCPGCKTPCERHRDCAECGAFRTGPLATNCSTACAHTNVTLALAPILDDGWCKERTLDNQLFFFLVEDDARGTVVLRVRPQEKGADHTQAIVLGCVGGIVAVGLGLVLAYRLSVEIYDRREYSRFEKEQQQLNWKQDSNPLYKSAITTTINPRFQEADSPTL
The series is described as follows: Inhibition of alpha4-beta7 integrin binding to radiolabeled vascular cell adhesion molecule-1 (VCAM-1) Ig fusion protein in human Jurkat cells. Type of series: cell-based.
Details: not given
In the case of `COc1ccccc1-c1ccc(C[C@H](NC(=O)C2(c3cccnc3)CCC(C)C2)C(=O)O)cc1` (mixture of isomers), the pIC50 is 7.03.
`COc1ccccc1-c1ccc(C[C@H](NC(=O)C2(c3cccnc3)CCCCC2)C(=O)O)cc1` showed a pIC50 of 6.80.
Consider `COc1ccccc1-c1ccc(C[C@H](NC(=O)C2(c3ccc(C)nc3)CCCC2)C(=O)O)cc1`, for which the pIC50 is 7.44.
The compound `COc1ccccc1-c1ccc(C[C@H](NC(=O)C2(c3ccc[n+]([O-])c3)CCCC2)C(=O)O)cc1` had a pIC50 of 6.74.
Compound `COc1ccccc1-c1ccc(C[C@H](NC(=O)C2(c3cccnc3C)CCCC2)C(=O)O)cc1` showed a pIC50 of 7.36. This pIC50 lies 0.62 log units higher than the previous one.
For `COc1ccccc1-c1ccc(C[C@H](NC(=O)C2(c3cccnc3)CC=CC2)C(=O)O)cc1`, the negative logarithm of the IC50 (pIC50) was 7.78.
`COc1ccccc1-c1ccc(C[C@H](NC(=O)C2(c3ccccc3)CCCC2)C(=O)O)cc1` gave a pIC50 of 6.96.
The compound `COc1ccccc1-c1ccc(C[C@H](NC(=O)C2(c3ccnnc3)CCCC2)C(=O)O)cc1` had a pIC50 of 7.48. Against the preceding compound, the pIC50 is 0.52 log units higher.
On to `COc1ccccc1-c1ccc(C[C@H](NC(=O)C2(c3cccnc3)CCN(C(C)=O)CC2)C(=O)O)cc1`, for which the pIC50 was 7.52.
`COc1ccccc1-c1ccc(C[C@H](NC(=O)C2(c3cccnc3)CCOCC2)C(=O)O)cc1` gave a pIC50 of 7.03.
In the case of `COc1ccccc1-c1ccc(C[C@H](NC(=O)C2(c3ccccn3)CCCC2)C(=O)O)cc1`, the pIC50 was 6.67.
The same measure, in the same setting: the figure for `COc1ccccc1-c1ccc(C[C@H](NC(=O)C2(c3ccc(O)nc3)CCCC2)C(=O)O)cc1` is 7.59.
